Test results from ChEMBL document CHEMBL3867480 (Bioorg Med Chem, 2016).
Values after ≈ are worked out from the molar mass of the structure shown.

Legend:
[1] = target: Disintegrin and metalloproteinase domain-containing protein 17 (Homo sapiens, UniProt P78536); assay: Inhibition of recombinant human TACE using Cy3-PLAQAV(Cy5Q-L-2,3-diaminopropionic acid)-RSSSR-NH2 as substrate measured after 40 mins by spectrofluorimetric method
[2] = target: T1, Matrilysin (Homo sapiens, UniProt P09237); assay: Inhibition of recombinant human […]-activated MMP7 using Cy3-PLGLK(Cy5Q)AR-NH2 as substrate measured after 40 mins by spectrofluorimetric method
T1 sequence (P09237 whole entry): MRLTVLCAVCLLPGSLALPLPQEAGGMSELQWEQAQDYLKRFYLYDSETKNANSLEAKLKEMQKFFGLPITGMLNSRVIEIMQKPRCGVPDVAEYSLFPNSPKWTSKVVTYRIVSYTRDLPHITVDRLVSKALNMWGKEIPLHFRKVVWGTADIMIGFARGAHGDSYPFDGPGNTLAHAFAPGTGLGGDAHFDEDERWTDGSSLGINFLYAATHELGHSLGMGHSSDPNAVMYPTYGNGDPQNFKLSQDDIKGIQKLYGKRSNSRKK

[3] = target: Collagenase 3 (Homo sapiens, UniProt P45452)
Description: Inhibition of recombinant human AMPA-activated MMP13 using Cy3-PLGLK(Cy5Q)AR-NH2 as substrate measured after 40 mins by spectrofluorimetric method

[4] = target: T2, Interstitial collagenase (Homo sapiens, UniProt P03956); assay: Inhibition of recombinant human […]-activated MMP1 using Cy3-PLGLK(Cy5Q)AR-NH2 as substrate measured after 40 mins by spectrofluorimetric method
T2 sequence (P03956 whole entry): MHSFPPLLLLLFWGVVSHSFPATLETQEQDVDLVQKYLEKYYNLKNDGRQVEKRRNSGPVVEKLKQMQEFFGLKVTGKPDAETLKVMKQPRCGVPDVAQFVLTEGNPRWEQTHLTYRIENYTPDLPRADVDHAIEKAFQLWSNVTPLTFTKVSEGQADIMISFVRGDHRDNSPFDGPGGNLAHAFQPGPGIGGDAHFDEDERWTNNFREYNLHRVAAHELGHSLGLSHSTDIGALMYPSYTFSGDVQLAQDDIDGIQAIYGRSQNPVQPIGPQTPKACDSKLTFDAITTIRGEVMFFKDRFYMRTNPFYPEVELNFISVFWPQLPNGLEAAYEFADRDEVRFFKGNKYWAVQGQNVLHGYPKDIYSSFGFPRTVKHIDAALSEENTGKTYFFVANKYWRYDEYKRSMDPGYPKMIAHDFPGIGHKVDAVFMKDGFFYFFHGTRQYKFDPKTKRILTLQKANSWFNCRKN

[5] = target: Stromelysin-1 (Homo sapiens, UniProt P08254); assay: Inhibition of recombinant human […]-activated MMP3 using Cy3-PLGLK(Cy5Q)AR-NH2 as substrate measured after 40 mins by spectrofluorimetric method
[6] = target: Stromelysin-2 (Homo sapiens, UniProt P09238); assay: Inhibition of recombinant human […]-activated MMP10 using Cy3-PLGLK(Cy5Q)AR-NH2 as substrate measured after 40 mins by spectrofluorimetric method
[7] = target: 72 kDa type IV collagenase (Homo sapiens, UniProt P08253); assay: Inhibition of recombinant human […]-activated MMP2 using Cy3-PLGLK(Cy5Q)AR-NH2 as substrate measured after 40 mins by spectrofluorimetric method
[8] = target: Neutrophil collagenase (Homo sapiens, UniProt P22894); assay: Inhibition of recombinant human […]-activated MMP8 using Cy3-PLGLK(Cy5Q)AR-NH2 as substrate measured after 40 mins by spectrofluorimetric method
[9] = target: Matrix metalloproteinase-14 (Homo sapiens, UniProt P50281); assay: Inhibition of recombinant human GST-tagged MMP14 using Cy3-PLGLK(Cy5Q)AR-NH2 as substrate measured after 40 mins by spectrofluorimetric method
[10] = target: Matrix metalloproteinase-9 (Homo sapiens, UniProt P14780); assay: Inhibition of recombinant human […]-activated MMP9 using Cy3-PLGLK(Cy5Q)AR-NH2 as substrate measured after 40 mins by spectrofluorimetric method
[11] = target: Macrophage metalloelastase (Homo sapiens, UniProt P39900); assay: Inhibition of recombinant human […]-activated MMP12 using Cy3-PLGLK(Cy5Q)AR-NH2 as substrate measured after 40 mins by spectrofluorimetric method
[12] = Permeability of the compound at pH 7.4 by PAMPA assay; format: ADME; settings: read-out: permeability
[13] = Oral bioavailability in rat at 1 mg/kg; format: ADME, organism-based; settings: in vivo
[14] = Volume of distribution in rat at 0.1 mg/kg, iv or 1 mg/kg, po; format: ADME, organism-based; settings: in vivo
[15] = Clearance in human liver microsomes; format: ADME; settings: read-out: CLH
[16] = Solubility of the compound at pH 6.8; format: physicochemical; settings: buffer
[17] = Clearance in rat at 0.1 mg/kg, iv or 1 mg/kg, po; format: ADME, organism-based; settings: in vivo
[18] = Clearance in rat liver microsomes; format: ADME; settings: read-out: CLH
[19] = target: CYP3A4 (Homo sapiens, UniProt P08684); assay: Inhibition of CYP3A4 (unknown origin) at 10 uM; format: ADME
Chain of CYP3A4 (P08684 whole entry): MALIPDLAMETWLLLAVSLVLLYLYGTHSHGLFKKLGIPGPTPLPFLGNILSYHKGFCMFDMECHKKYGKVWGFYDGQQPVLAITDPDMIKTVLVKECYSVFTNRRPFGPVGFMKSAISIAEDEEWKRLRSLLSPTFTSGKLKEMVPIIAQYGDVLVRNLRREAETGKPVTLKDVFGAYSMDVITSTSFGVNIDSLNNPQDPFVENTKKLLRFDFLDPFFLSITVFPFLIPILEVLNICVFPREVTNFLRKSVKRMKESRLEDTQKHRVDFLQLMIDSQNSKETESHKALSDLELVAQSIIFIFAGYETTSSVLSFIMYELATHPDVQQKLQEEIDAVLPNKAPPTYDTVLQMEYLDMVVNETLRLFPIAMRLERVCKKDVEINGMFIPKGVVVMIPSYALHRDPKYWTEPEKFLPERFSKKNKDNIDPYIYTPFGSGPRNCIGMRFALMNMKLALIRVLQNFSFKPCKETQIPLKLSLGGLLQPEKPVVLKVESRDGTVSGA

Chain of 72 kDa type IV collagenase (P08253 whole entry): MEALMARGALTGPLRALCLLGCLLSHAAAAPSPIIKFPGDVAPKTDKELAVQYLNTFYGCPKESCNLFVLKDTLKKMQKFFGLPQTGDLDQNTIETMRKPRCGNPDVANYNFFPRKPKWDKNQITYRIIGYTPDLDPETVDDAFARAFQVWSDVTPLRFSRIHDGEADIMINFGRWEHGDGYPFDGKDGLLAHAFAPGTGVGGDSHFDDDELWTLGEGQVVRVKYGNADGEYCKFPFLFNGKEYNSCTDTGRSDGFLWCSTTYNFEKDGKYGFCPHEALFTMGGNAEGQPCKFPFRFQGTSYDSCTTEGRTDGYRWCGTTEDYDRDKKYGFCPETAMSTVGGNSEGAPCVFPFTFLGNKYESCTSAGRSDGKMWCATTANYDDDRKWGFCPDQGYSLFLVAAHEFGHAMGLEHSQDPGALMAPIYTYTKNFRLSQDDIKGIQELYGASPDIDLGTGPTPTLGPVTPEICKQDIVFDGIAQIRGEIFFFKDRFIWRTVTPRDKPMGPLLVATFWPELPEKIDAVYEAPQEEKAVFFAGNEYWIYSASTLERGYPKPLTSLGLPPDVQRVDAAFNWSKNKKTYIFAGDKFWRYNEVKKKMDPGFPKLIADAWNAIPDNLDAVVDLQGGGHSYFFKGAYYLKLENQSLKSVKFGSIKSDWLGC
Chain of Matrix metalloproteinase-9 (P14780 whole entry): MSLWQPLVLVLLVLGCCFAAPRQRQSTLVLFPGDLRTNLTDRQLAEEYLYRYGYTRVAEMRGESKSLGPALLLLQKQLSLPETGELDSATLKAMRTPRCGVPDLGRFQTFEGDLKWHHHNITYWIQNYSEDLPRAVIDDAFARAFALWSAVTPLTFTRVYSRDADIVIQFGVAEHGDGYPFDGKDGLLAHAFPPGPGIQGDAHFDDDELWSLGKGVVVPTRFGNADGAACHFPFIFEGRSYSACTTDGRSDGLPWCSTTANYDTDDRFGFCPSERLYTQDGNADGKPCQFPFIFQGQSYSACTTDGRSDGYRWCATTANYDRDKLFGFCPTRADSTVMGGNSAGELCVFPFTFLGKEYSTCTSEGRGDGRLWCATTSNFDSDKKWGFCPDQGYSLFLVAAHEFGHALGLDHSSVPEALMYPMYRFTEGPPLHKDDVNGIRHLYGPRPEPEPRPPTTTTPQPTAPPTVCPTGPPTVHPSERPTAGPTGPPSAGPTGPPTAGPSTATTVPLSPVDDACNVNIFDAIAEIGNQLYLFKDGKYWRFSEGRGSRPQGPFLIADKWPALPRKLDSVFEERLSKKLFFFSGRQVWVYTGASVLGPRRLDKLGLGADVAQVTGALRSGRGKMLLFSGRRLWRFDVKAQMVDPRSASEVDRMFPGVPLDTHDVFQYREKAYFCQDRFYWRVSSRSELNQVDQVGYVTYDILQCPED
Chain of Stromelysin-2 (P09238 whole entry): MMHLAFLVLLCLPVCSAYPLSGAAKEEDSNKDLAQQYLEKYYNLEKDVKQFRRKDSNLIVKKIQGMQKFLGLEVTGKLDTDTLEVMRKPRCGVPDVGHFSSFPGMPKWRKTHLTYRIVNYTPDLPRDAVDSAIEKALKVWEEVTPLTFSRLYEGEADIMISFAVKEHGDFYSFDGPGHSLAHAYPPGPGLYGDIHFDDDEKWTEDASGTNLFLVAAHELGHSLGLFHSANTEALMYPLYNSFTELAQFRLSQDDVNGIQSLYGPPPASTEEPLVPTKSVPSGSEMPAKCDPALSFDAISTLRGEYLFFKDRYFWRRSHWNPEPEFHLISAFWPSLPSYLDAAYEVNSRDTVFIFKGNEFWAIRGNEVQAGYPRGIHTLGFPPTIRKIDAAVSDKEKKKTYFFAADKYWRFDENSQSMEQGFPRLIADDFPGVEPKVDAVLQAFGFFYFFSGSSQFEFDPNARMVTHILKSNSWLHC
Chain of Stromelysin-1 (P08254 whole entry): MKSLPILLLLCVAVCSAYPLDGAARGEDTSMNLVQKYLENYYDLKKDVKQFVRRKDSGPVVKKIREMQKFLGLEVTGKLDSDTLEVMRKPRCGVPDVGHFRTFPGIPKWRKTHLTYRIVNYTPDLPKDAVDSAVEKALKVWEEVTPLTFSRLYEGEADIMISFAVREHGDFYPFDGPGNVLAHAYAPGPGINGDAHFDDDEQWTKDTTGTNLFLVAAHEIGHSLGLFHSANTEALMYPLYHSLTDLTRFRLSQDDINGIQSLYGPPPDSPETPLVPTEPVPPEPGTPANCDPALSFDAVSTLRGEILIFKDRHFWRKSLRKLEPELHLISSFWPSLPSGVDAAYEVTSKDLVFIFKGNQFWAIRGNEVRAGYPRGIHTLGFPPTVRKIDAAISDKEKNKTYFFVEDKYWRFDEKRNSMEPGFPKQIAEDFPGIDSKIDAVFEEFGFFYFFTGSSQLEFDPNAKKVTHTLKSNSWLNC
Chain of Disintegrin and metalloproteinase domain-containing protein 17 (P78536 whole entry, the tested form may be a part): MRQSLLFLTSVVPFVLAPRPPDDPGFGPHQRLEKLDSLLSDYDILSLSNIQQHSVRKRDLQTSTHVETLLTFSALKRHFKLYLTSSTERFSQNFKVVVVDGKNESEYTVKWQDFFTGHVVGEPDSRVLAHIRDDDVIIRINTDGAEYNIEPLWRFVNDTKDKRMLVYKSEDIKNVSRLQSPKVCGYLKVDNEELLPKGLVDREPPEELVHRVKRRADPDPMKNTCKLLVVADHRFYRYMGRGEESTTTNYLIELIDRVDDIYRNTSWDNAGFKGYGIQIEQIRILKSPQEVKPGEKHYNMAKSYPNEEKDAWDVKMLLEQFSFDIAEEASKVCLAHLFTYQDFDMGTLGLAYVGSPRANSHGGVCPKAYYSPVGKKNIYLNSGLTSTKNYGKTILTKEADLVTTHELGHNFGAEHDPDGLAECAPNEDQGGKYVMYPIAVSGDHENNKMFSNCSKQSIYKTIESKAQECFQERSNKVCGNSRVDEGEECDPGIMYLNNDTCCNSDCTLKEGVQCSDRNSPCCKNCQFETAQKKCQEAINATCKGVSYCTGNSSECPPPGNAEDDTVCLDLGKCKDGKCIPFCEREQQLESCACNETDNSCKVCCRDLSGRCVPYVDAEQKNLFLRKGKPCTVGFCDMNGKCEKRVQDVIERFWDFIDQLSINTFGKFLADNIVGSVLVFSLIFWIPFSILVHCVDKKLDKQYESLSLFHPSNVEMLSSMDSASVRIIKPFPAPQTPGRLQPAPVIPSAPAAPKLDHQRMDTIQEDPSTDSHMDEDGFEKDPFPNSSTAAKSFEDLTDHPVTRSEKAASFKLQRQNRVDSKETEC
Chain of Neutrophil collagenase (P22894 whole entry): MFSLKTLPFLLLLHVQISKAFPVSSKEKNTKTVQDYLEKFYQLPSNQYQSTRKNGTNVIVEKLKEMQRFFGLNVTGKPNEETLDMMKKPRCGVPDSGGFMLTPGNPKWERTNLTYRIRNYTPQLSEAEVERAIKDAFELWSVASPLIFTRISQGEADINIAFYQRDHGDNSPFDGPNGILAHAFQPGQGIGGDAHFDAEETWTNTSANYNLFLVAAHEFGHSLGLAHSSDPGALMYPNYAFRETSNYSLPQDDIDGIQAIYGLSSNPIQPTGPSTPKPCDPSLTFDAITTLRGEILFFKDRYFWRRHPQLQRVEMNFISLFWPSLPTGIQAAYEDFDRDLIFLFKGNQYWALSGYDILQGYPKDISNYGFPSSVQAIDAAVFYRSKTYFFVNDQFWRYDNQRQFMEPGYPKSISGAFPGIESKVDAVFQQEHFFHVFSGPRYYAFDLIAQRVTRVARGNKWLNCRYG
Chain of Macrophage metalloelastase (P39900 whole entry): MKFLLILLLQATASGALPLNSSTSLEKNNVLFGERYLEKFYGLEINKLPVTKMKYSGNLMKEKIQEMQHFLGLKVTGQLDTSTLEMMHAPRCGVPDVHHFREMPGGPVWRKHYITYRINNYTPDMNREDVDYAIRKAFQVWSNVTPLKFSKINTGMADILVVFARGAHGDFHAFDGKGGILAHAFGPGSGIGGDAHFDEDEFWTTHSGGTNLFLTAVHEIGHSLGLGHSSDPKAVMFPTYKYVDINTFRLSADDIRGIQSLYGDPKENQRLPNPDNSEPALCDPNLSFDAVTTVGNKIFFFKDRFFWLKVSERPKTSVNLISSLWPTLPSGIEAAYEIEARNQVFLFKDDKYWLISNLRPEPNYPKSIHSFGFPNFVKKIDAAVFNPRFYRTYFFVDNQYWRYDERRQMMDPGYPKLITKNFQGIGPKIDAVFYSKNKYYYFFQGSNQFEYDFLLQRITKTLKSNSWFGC

| Compound | IC50 [1] | IC50 [2] | IC50 [3] | IC50 [4] | IC50 [5] | IC50 [6] | IC50 [7] | IC50 [8] | IC50 [9] | IC50 [10] | IC50 [11] | Papp [12] | bioavailability [13] | Vd [14] | microsomal CLint [15] | solubility [16] | clearance [17] | microsomal CLint [18] | inhibition at 10 µM [19] |
| --- | --- | --- | --- | --- | --- | --- | --- | --- | --- | --- | --- | --- | --- | --- | --- | --- | --- | --- | --- |
| CC(C)[C@H](NS(=O)(=O)c1ccc(-c2cccc(CNC(=O)c3nc4ccccc4c(=O)[nH]3)c2)cc1)C(=O)O | > 10000 nM | 1000 nM | 0.17 nM | 3400 nM | 30 nM | 2.4 nM | 8.3 nM | 8.9 nM | 140 nM | 36 nM | 16 nM |  |  |  |  |  |  |  |  |
| O=C(NCc1cccc(-c2ccc(CS(=O)(=O)Cc3n[nH]c(=O)[nH]3)cc2)c1)c1nc2ccccc2c(=O)[nH]1 | > 10000 nM | > 10000 nM | 0.071 nM | > 10000 nM | 2400 nM | 150 nM | 23 nM | 12 nM | > 10000 nM | > 10000 nM | 9500 nM | 0.7 ×10⁻⁶ cm/s | 1.3% | 0.32 L/kg | 7 µL/min/mg | 0.48 µg/mL (≈ 0.905 µM) | 5.38 mL/min/kg | 13 µL/min/mg | 29% |
| O=C(NCc1cccc(N2CCN(C(=O)Cc3cc(=O)[nH][nH]3)CC2)c1)c1nc2ccccc2c(=O)[nH]1 |  |  | 0.36 nM |  |  | < 10 nM | < 10 nM | < 10 nM |  |  |  |  |  |  |  |  |  |  |  |
| O=C(NCc1cccc(N2CCN(C(=O)Cc3n[nH]c(=O)[nH]3)CC2)c1)c1nc2ccccc2c(=O)[nH]1 | > 10000 nM | > 10000 nM | 0.11 nM | > 10000 nM | 23 nM | 6.2 nM | 10 nM | 3.9 nM | 8900 nM | 2900 nM | 260 nM |  |  |  |  |  |  |  |  |
| CC(=O)N(O)C(CS(=O)(=O)c1ccc(-c2cccc(CNC(=O)c3nc4ccccc4c(=O)[nH]3)c2)cc1)C(C)C (stereo not given) |  |  | 0.3 nM |  |  | 64 nM | 65 nM | 110 nM |  |  |  | 45.2 ×10⁻⁶ cm/s | < 1% |  | 250 µL/min/mg | 0.93 µg/mL (≈ 1.65 µM) | < 0.0167 mL/min/kg | 250 µL/min/mg | 99% |
| O=C(NCc1cccc(-c2ccc(CS(=O)(=O)Cc3n[nH]c(=O)[nH]3)cc2)c1)c1nc2scc(-c3cccc(Cl)c3)c2c(=O)[nH]1 |  |  | 0.38 nM |  |  | 34 nM | 86 nM | 1000 nM |  |  |  |  |  |  |  |  |  |  |  |
| CCOCCC1(Oc2ccc(-c3cccc(CNC(=O)c4nc5ccccc5c(=O)[nH]4)c3)cc2)C(=O)NC(=O)NC1=O | > 10000 nM | > 10000 nM | 0.23 nM | > 10000 nM | 3300 nM | 930 nM | 110 nM | 56 nM | 3700 nM | 1600 nM | 540 nM | 9.5 ×10⁻⁶ cm/s | 32% | 0.054 L/kg | 12 µL/min/mg | 9.1 µg/mL (≈ 16 µM) | 0.35 mL/min/kg |  | 22% |
| O=C(NCc1cccc(OCCCOc2nc[nH]n2)c1)c1nc2scc(-c3cccc(Cl)c3)c2c(=O)[nH]1 |  |  |  |  |  | 820 nM | 510 nM | > 1000 nM |  |  |  |  |  |  |  |  |  |  |  |
| COc1cccc(CNC(=O)c2nc3scc(-c4cccc(Cl)c4)c3c(=O)[nH]2)c1 |  |  | 0.12 nM |  |  | 6300 nM | 2600 nM | > 10000 nM |  |  |  |  |  |  |  |  |  |  |  |
| COc1cccc(CNC(=O)c2nc3ccccc3c(=O)[nH]2)c1 |  |  | 5.6 to 12 nM |  |  |  |  |  |  |  |  |  |  |  |  |  |  |  |  |
| CC(C)C(CS(=O)(=O)c1ccc(-c2cccc(CNC(=O)c3nc4ccccc4c(=O)[nH]3)c2)cc1)N(O)C(N)=O (stereo not given) |  |  | 0.26 nM |  |  | < 10 nM | < 10 nM | 19 nM |  |  |  |  |  |  |  |  |  |  |  |
| O=C1NC(=O)C(CC(=O)N2CCN(c3cccc(CNC(=O)c4nc5ccccc5c(=O)[nH]4)c3)CC2)N1 (stereo not given) |  |  | 0.19 nM |  |  | < 10 nM | < 10 nM | < 10 nM |  |  |  |  |  |  |  |  |  |  |  |
| CC(C)C(CS(=O)(=O)c1ccc(-c2cccc(CNC(=O)c3nc4ccccc4c(=O)[nH]3)c2)cc1)N(O)C=O (stereo not given) | > 10000 nM | 30 nM | 0.051 nM | 18 nM | 2.5 nM | 0.35 nM | 3 nM | 1.3 nM | 5.4 nM | 5.3 nM | 8.5 nM |  |  |  |  |  |  |  |  |
| O=C(NCc1cccc(OCCCS(=O)(=O)N2CCCCC2C(=O)O)c1)c1nc2ccccc2c(=O)[nH]1 (stereo not given) | > 10000 nM | > 10000 nM | 0.24 nM | > 10000 nM | 370 nM | 240 nM | 14 nM | 14 nM | > 10000 nM | > 10000 nM | 300 nM |  |  |  |  |  |  |  |  |
| CC(C)[C@H](NS(=O)(=O)c1ccc(-c2cccc(CNC(=O)c3nc4ccccc4c(=O)[nH]3)c2)cc1)C(=O)NO | > 10000 nM | 7.3 nM | 0.0032 nM | 11 nM | 1.5 nM | 0.3 nM | 1.9 nM | 0.82 nM | 3.8 nM | 4.7 nM | 8.1 nM |  |  |  |  |  |  |  |  |
| O=C(NCc1cccc(OCCCS(=O)(=O)N2CCCCC2C(=O)NO)c1)c1nc2ccccc2c(=O)[nH]1 (stereo not given) | 510 nM | 2000 nM | 0.052 nM | > 10000 nM | 2.6 nM | 2.6 nM | 0.57 nM | 1.2 nM | 550 nM | 72 nM | 1.8 nM |  |  |  |  |  |  |  |  |
| O=C(NCc1cccc(OCCCOc2nc[nH]n2)c1)c1nc2ccccc2c(=O)[nH]1 |  |  | 0.59 nM |  |  | 220 nM | 32 nM | 22 nM |  |  |  |  |  |  |  |  |  |  |  |
| O=C(NCc1cccc(N2CCN(C(=O)Cc3nnn[nH]3)CC2)c1)c1nc2ccccc2c(=O)[nH]1 |  |  | 1.5 nM |  |  | 640 nM | 160 nM | 32 nM |  |  |  |  |  |  |  |  |  |  |  |
| O=C(NCc1cccc(N2CCN(C(=O)Cc3c[nH]cn3)CC2)c1)c1nc2ccccc2c(=O)[nH]1 |  |  | 1.7 nM |  |  | 460 nM | 120 nM | 45 nM |  |  |  |  |  |  |  |  |  |  |  |
